pIC50: −log10 of the molar value. Where only a bound is given, the exact number is not on record here.

The first test concerns Nedd8-cullin. Description: Cullin neddylation, protein immunoblotting in HepG2 cells. Format: cell-based. The note with it: 48 h at 10 uM (FIG. 2). An excerpt: Cells were then collected and assayed for protein immunoblotting. […]
DCN1 protein is believed to harbor a UBC12 binding pocket. Scott et al, Cell 757:1671-84 (2014). […] Scott et al. (2014). The N-terminal acetylation acts as an avidity enhancer within an interconnected multiprotein complex. Science, 554:674-8 (2011). Specifically, n-terminal of UBC12 is acetylated (FIG. 1A, yellow) and completely buried inside the hydrophobic pocket within DCN1 (4gao.PDB, FIG. 1B). Small molecule inhibition of the DCN1 hydrophobic pocket would presumably disrupt UBC12 binding, and thus disrupt Neddylation of Cullin protein. Potential ligands were assessed that might fit the DCN1 domain cavities (FIG. 1B). 3-(pentylamino)-5-phenylcyclohex-2-en-1-one was selected for future testing (FIG. 1C). […] MLN4924 was used as a positive control.
On to `CCCCCNC1=CC(=O)CC(c2ccccc2)C1` (stereo not drawn) [3-(pentylamino)-5-phenylcyclohex-2-en-1-one], for which the “reducing cullin1 neddylation” value is given as “good activity”.

The next test concerns DSS induced colonic inflammation. Description: DSS induced colitis model. The note with it: DSS in water, compounds in drinking water at 10 mg/kg/d (FIG. 12A-B). It counts as in vivo, C57BL6 mice. The procedure:
FIGS. 12A-12D show DCN1 inhibitors reduce DSS induced colonic inflammation, specifically the following experimental results C57BL6 mice were fed with water ad lib containing 3% dextran sulfate sodium (DSS) for six days. DCN1 inhibitors were administered into drinking water at 10 mg/kg/d, starting at day 1. […] The data represent n=4 mice/group, *P<0.05 versus CON.
Also tested were 3-(decylamino)-5-phenylcyclohex-2-en-1-one (BC1558), 3-(dibenzylamino)-5-phenylcyclohex-2-en-1-one (BC1634) and 3-((4-phenoxybenzyl)amino)-5-phenylcyclohex-2-en-1-one (BC1653) in a mouse colitis model to confirm its anti-inflammatory activity. Briefly, C57BL6 mice were fed with water containing 3.5% […] and colonic length was measured. DSS produced a significant decrease in colon length in mice, consistent with colonic inflammation (FIG. 12A-B). […] Colonic tissue cytokine levels were further analyzed.
For `O=C1C=C(NCc2ccc(Oc3ccccc3)cc2)CC(c2ccccc2)C1` (stereo not drawn) [BC1653, 3-((4-phenoxybenzyl)amino)-5-phenylcyclohex-2-en-1-one], the “colon length compared vehicle” value is recorded as “significant increase”.

Still in this test, the particulars now being: DSS in water, compounds in drinking water at 10 mg/kg/d (FIG. 12C-D).
For the molecule `O=C1C=C(NCc2ccc(Oc3ccccc3)cc2)CC(c2ccccc2)C1` (stereo not drawn) [BC1653, 3-((4-phenoxybenzyl)amino)-5-phenylcyclohex-2-en-1-one], the “IL1β and IL6 levels in colonic tissue compared to vehicle” value was “large reduction”.

The subject of the next test is HepG2 tumor implants. Description: HepG2 tumor implants in nude mice, tumor growth. It counts as in vivo, athymic nude mice. The note with it: compounds in drinking water (15 mg/kg/d), start at tumor size 0.1 cm^3 (FIG. 8). The procedure:
Mice were implanted with HepG2 cells (10^6 cells) through subcutaneous injection. 2 weeks later, once tumor size reaches ˜0.1 cm^3, mice were randomized and the treatment began by adding compounds to the drinking water ([…]). Tested compounds were: Vehicle, 3-(decylamino)-5-phenylcyclohex-2-en-1-one (BC1558), 3-(dibenzylamino)-5-phenylcyclohex-2-en-1-one (BC1634) or 3-((4-phenoxybenzyl)amino)-5-phenylcyclohex-2-en-1-one (BC1653). Tumor volume measurements over time were graphed (n=4-5 mice/group, *P<0.05 versus Vehicle).
As a complementary in vivo model, tumorogenicity was further assessed after implanting HepG2 cells along with 3-(decylamino)-5-phenylcyclohex-2-en-1-one, 3-(dibenzylamino)-5-phenylcyclohex-2-en-1-one, 3-((4-phenoxybenzyl)amino)-5-phenylcyclohex-2-en-1-one treatment in athymic nude mice. Mice were implanted with HepG2 cells through subcutaneous injection. Two weeks later, once tumor size reached 0.1 cm^3, the mice were randomized and the treatment began by adding compounds to the drinking water (15 mg/kg/d).
Turning to `O=C1C=C(NCc2ccc(Oc3ccccc3)cc2)CC(c2ccccc2)C1` (stereo not drawn) [BC1653, 3-((4-phenoxybenzyl)amino)-5-phenylcyclohex-2-en-1-one], the “tumor size compared to the vehicle” value was “Significantly reduced tumor size”.
For `O=C1C=C(N(Cc2ccccc2)Cc2ccccc2)CC(c2ccccc2)C1` (stereo not drawn) [BC1634, 3-(dibenzylamino)-5-phenylcyclohex-2-en-1-one], the “tumor size compared to the vehicle” value was “Significantly reduced tumor size”.

The test system of a further test is HepG2 cells. Description: HepG2 cell proliferation (CellTiter-Glo Luminescent Cell Viability Assay). It counts as cell-based. The note with it: Homo sapiens, 96 h, ATP production, n=3, read-out: IC50Proliferation. As for the experimental part:
Cell proliferation were then measured by CellTiter-Glo® Luminescent Cell Viability Assay (n=3).
4KHepG2 cells were seeded in 96 well plates for overnight. Compounds listed in Table 3 were then added to each well at various concentrations. 96 h later, cell proliferation was measured by ATP production using a CellTiter-Glo® Luminescent Cell Viability Assay (Promega).
3-(pentylamino)-5-phenylcyclohex-2-en-1-one was modified by adding a different sidechain. These novel compounds were tested further in an in vitro proliferation assay using ATPLite Cell Proliferation kit. […] Others lost activity in reducing Cullin Neddylation and inhibiting cell proliferation (FIG. 3C-D).
Take `COc1ccc(Oc2ccc(CNC3=CC(=O)CC(c4ccccc4)C3)cc2)cc1` (stereo not drawn) [BC1660]: the pIC50 is 5.00 to 6.00.
Same read-out and setting: the same measure for `O=C1C=C(NCc2cccc(Oc3ccccc3)c2)CC(c2ccccc2)C1` (stereo not drawn) [BC1651]: more than 6.00; for `CCC(C)NC1=CC(=O)CC(c2ccccc2)C1` (stereo not drawn) [BC1546]: less than 5.00; for `CC(NC1=CC(=O)CC(c2ccccc2)C1)c1ccc(Oc2ccccc2)cc1` (stereo not drawn) [BC1661]: less than 5.00.
Same read-out and setting: the same measure for `CCCCCCCCNC1=CC(=O)CC(c2ccccc2)C1` (stereo not drawn) [BC1554]: more than 6.00; for `O=C1C=C(NCc2cnc(-c3ccccc3)nc2)CC(c2ccccc2)C1` (stereo not drawn) [BC1657]: 5.00 to 6.00; for `O=C1C=C(NCc2ccc(CN3CCCCC3)cc2)CC(c2ccccc2)C1` (stereo not drawn) [BC1665]: less than 5.00.
Turning to `CC(C)CCNC1=CC(=O)CC(c2ccccc2)C1` (stereo not drawn) [BC1532], the pIC50 was 5.00 to 6.00.
The same measure, in the same setting: the same measure for `O=C1C=C(NC(c2ccccc2)c2ccccc2)CC(c2ccccc2)C1` (stereo not drawn) [BC1621]: less than 5.00; for `CC1(C)C2C[C@@H]1CCC2CNC1=CC(=O)CC(c2ccccc2)C1` (stereo partly drawn) [BC1627]: 5.00 to 6.00.
Same read-out and setting: the same measure for `O=C1C=C(NCc2cccc(-c3ccccc3)c2)CC(c2ccccc2)C1` (stereo not drawn) [BC1631]: more than 6.00; for `CCCCCCCCCCNC1=CC(=O)CC(c2ccc(F)cc2)C1` (stereo not drawn) [BC1648]: 5.00 to 6.00; for `O=C1C=C(NC2CCCCC2)CC(c2ccccc2)C1` (stereo not drawn) [BC1534]: less than 5.00.
As to `CCCCCCCCCCNC1=CC(=O)CC(c2ccco2)C1` (stereo not drawn) [BC1646], the pIC50 is more than 6.00.
Still for that read-out and setting: the same measure for `CCCCCCCCCCCNC1=CC(=O)CC(c2ccccc2)C1` (stereo not drawn) [BC1560]: more than 6.00; for `O=C1C=C(NCc2cnc(Nc3ccccc3)nc2)CC(c2ccccc2)C1` (stereo not drawn) [BC1656]: less than 5.00.
Same read-out and setting: the same measure for `O=C1C=C(NCc2ccc(Oc3ccccc3)cc2)CC(c2ccccc2)C1` (stereo not drawn) [BC1653, 3-((4-phenoxybenzyl)amino)-5-phenylcyclohex-2-en-1-one]: more than 6.00; for `CN1CCC(c2ccc(CNC3=CC(=O)CC(c4ccccc4)C3)cc2)CC1` (stereo not drawn) [BC1664]: less than 5.00; for `O=C1C=C(NCc2nc3ccccc3[nH]2)CC(c2ccccc2)C1` (stereo not drawn) [BC1658]: less than 5.00.
On to `COc1cc(CNC2=CC(=O)CC(c3ccccc3)C2)ccc1OC1CCCC1` (stereo not drawn) [BC1669], for which the pIC50 was more than 6.00.
Consider `CCCCCCCCCCCCNC1=CC(=O)CC(c2ccccc2)C1` (stereo not drawn) [BC1562], for which the pIC50 was more than 6.00.
The same measure, in the same setting: the same measure for `O=C1C=C(NCc2cccc(-c3ncccn3)c2)CC(c2ccccc2)C1` (stereo not drawn) [BC1650]: 5.00 to 6.00; for `O=C1C=C(NCc2ccc3oc4ccccc4c3c2)CC(c2ccccc2)C1` (stereo not drawn) [BC1670]: 5.00 to 6.00; for `CCCCCCCCCCNC1=CC(=O)CC(c2ccc3c(c2)OCO3)C1` (stereo not drawn) [BC1644]: less than 5.00.
Same read-out and setting: the same measure for `O=C1C=C(Nc2cnc(-c3ccccc3)nc2)CC(c2ccccc2)C1` (stereo not drawn) [BC1655]: less than 5.00; for `O=C1C=C(NCc2ccc(OC3CCCCC3)cc2)CC(c2ccccc2)C1` (stereo not drawn) [BC1663]: more than 6.00; for `O=C1C=C(NCCc2ccccc2)CC(c2ccccc2)C1` (stereo not drawn) [BC1535]: 5.00 to 6.00.
Still for that read-out and setting: the same measure for `CCCCCCCNC1=CC(=O)CC(c2ccccc2)C1` (stereo not drawn) [BC1552]: more than 6.00; for `Cc1ccccc1-c1cccc(CNC2=CC(=O)CC(c3ccccc3)C2)c1` (stereo not drawn) [BC1640]: 5.00 to 6.00; for `O=C1C=C(NC2CCC2)CC(c2ccccc2)C1` (stereo not drawn) [BC1625]: less than 5.00.
Regarding `O=C1C=C(NCc2ccc(OC3CCCC3)cc2)CC(c2ccccc2)C1` (stereo not drawn) [BC1666], the pIC50 is more than 6.00.
Same read-out and setting: the same measure for `O=C1C=C(NCc2ccc(Oc3ccc(F)cc3)cc2)CC(c2ccccc2)C1` (stereo not drawn) [BC1662]: more than 6.00; for `O=C1C=C(NCc2ccc(CN3CCOCC3)cc2)CC(c2ccccc2)C1` (stereo not drawn) [BC1668]: 5.00 to 6.00; for `O=C1C=C(NCc2ccc(-c3ccccc3)cc2)CC(c2ccccc2)C1` (stereo not drawn) [BC1629]: more than 6.00.
On the same count and under the same terms, the same measure for `CCCCCCCCCCCCCCCCNC1=CC(=O)CC(c2ccccc2)C1` (stereo not drawn) [BC1564]: less than 5.00; for `O=C1C=C(NCc2ccccc2)CC(c2ccccc2)C1` (stereo not drawn) [BC1548]: 5.00 to 6.00.
On the same count and under the same terms, the same measure for `O=C1C=C(NCC2CCCCC2)CC(c2ccccc2)C1` (stereo not drawn) [BC1633]: less than 5.00; for `CCCCCCCCCNC1=CC(=O)CC(c2ccccc2)C1` (stereo not drawn) [BC1556]: more than 6.00.
Regarding `Cc1ccccc1-c1cccc(CNC2=CC(=O)CC(c3ccc4c(c3)OCO4)C2)c1` (stereo not drawn) [BC1641], the pIC50 was less than 5.00.
Consider `O=C1C=C(NC2C[C@@H]3CCC2C3)CC(c2ccccc2)C1` (stereo partly drawn) [BC1550], for which the pIC50 was 5.00 to 6.00.
On the same count and under the same terms, the same measure for `CCCCCNC1=CC(=O)CC(c2ccccc2)C1` (stereo not drawn) [BC1526]: 5.00 to 6.00; for `O=C1C=C(NC23CC4C[C@H](C2)C[C@@H](C4)C3)CC(c2ccccc2)C1` (stereo partly drawn) [BC1549]: less than 5.00.
Still for that read-out and setting: the same measure for `O=C1C=C(NCc2ccc3[nH]c4ccccc4c3c2)CC(c2ccccc2)C1` (stereo not drawn) [BC1659]: more than 6.00; for `O=C1C=C(NC2CCCCCCCCCCC2)CC(c2ccccc2)C1` (stereo not drawn) [BC1623]: less than 5.00; for `Cc1cccc(N2CCC(NC3=CC(=O)CC(c4ccccc4)C3)CC2)c1` (stereo not drawn) [BC1654]: less than 5.00.
Take `CC1CC(C)CN(Cc2ccc(CNC3=CC(=O)CC(c4ccccc4)C3)cc2)C1` (stereo not drawn) [BC1667]: the pIC50 is less than 5.00.

The record behind these values is patent US20200405715A1, “COMPOSITIONS AND METHODS FOR TREATING CANCER AND INFLAMMATORY DISEASES” (University of Pittsburgh - Of the Commonwealth System of …, priority 2016, published 2020).
